Literature values as cited in PubChem BioAssay AID1259409 (Chemical Carcinogenesis Research Information System (CCRIS), 2018).

System: rodent chemically induced tumor inhibition, incidence and multiplicity
Assay: CCRIS tumor inhibitor studies
Conditions: Route [Inhibitor]: ORAL, Species: RAT

In the case of `Cn1c(=O)c2c(ncn2C)n(C)c1=O`, the “tumour outcome (control, treated, inhibition, significance)” value (Carcinogen: 1,2-DIMETHYLHYDRAZINE, 540-73-8, Dose [Inhibitor]: 0, 600 MG/L IN DRINKING WATER FOR DURATION OF STUDY BEGINNING 7 D PRIOR TO CARCINOGEN TREATMENT (STUDY DURATION: 8 MO), Strain/Sex: BD6/MALE, Target Tissue: Type of Lesion: INTESTINE: TUMOR, Dose [Carcinogen]: 20 MG/KG BW 1/WK FOR 20 WK, Promoter: NONE USED) is given as 100%, 100%, 0%, not significant, the “tumour outcome (control, treated, inhibition, significance)” value (Carcinogen: 2-ACETYLAMINOFLUORENE, 53-96-3, Dose [Inhibitor]: 0, 0.1% IN DRINKING WATER FOR FIRST 12 WK (STUDY DURATION: 30 WK), Strain/Sex: ACI/MALE, Target Tissue: Type of Lesion: LIVER: HEPATOCELLULAR ADENOMA, Dose [Carcinogen]: 0.02% IN DIET FOR FIRST 12 WK) is given as 100%, 78%, 22%, not significant and the “tumour outcome (control, treated, inhibition, significance)” value (Carcinogen: 2-ACETYLAMINOFLUORENE, 53-96-3, Dose [Inhibitor]: 0, 0.1% IN DRINKING WATER FOR FIRST 12 WK (STUDY DURATION: 30 WK), Strain/Sex: ACI/MALE, Target Tissue: Type of Lesion: LIVER: HEPATOCELLULAR CARCINOMA, Dose [Carcinogen]: 0.02% IN DIET FOR FIRST 12 WK) is given as 44%, 22%, 50%, not significant. For the same compound, the “tumour outcome (control, treated, inhibition, significance)” value (Carcinogen: 2-ACETYLAMINOFLUORENE, 53-96-3, Dose [Inhibitor]: 0, 0.1% IN DRINKING WATER FOR FIRST 12 WK (STUDY DURATION: 30 WK), Strain/Sex: ACI/MALE, Target Tissue: Type of Lesion: SMALL INTESTINE: ADENOCARCINOMA, Dose [Carcinogen]: 0.02% IN DIET FOR FIRST 12 WK) was 9%, 17%, -89%, not significant, the “tumour outcome (control, treated, inhibition, significance)” value (Carcinogen: 2-ACETYLAMINOFLUORENE, 53-96-3, Dose [Inhibitor]: 0, 0.15% IN DRINKING WATER FOR FIRST 12 WK (STUDY DURATION: 30 WK), Strain/Sex: ACI/MALE, Target Tissue: Type of Lesion: LIVER: HEPATOCELLULAR ADENOMA, Dose [Carcinogen]: 0.02% IN DIET FOR FIRST 12 WK) was 100%, 63%, 37%, p<0.01 and the “tumour outcome (control, treated, inhibition, significance)” value (Carcinogen: 2-ACETYLAMINOFLUORENE, 53-96-3, Dose [Inhibitor]: 0, 0.15% IN DRINKING WATER FOR FIRST 12 WK (STUDY DURATION: 30 WK), Strain/Sex: ACI/MALE, Target Tissue: Type of Lesion: LIVER: HEPATOCELLULAR CARCINOMA, Dose [Carcinogen]: 0.02% IN DIET FOR FIRST 12 WK) was 44%, 8%, 82%, p<0.02. For the same compound, the “tumour outcome (control, treated, inhibition, significance)” value (Carcinogen: 2-ACETYLAMINOFLUORENE, 53-96-3, Dose [Inhibitor]: 0, 0.15% IN DRINKING WATER FOR FIRST 12 WK (STUDY DURATION: 30 WK), Strain/Sex: ACI/MALE, Target Tissue: Type of Lesion: SMALL INTESTINE: ADENOCARCINOMA, Dose [Carcinogen]: 0.02% IN DIET FOR FIRST 12 WK) was 9%, 13%, -44%, not significant, the “tumour outcome (control, treated, inhibition, significance)” value (Carcinogen: 2-ACETYLAMINOFLUORENE, 53-96-3, Dose [Inhibitor]: 0, 0.2% IN DRINKING WATER FOR FIRST 12 WK (STUDY DURATION: 30 WK), Strain/Sex: ACI/MALE, Target Tissue: Type of Lesion: LIVER: HEPATOCELLULAR ADENOMA, Dose [Carcinogen]: 0.02% IN DIET FOR FIRST 12 WK) was 100%, 35%, 65%, p<0.001 and the “tumour outcome (control, treated, inhibition, significance)” value (Carcinogen: 2-ACETYLAMINOFLUORENE, 53-96-3, Dose [Inhibitor]: 0, 0.2% IN DRINKING WATER FOR FIRST 12 WK (STUDY DURATION: 30 WK), Strain/Sex: ACI/MALE, Target Tissue: Type of Lesion: LIVER: HEPATOCELLULAR CARCINOMA, Dose [Carcinogen]: 0.02% IN DIET FOR FIRST 12 WK) was 44%, 5%, 89%, p<0.02. For the same compound, the “tumour outcome (control, treated, inhibition, significance)” value (Carcinogen: 2-ACETYLAMINOFLUORENE, 53-96-3, Dose [Inhibitor]: 0, 0.2% IN DRINKING WATER FOR FIRST 12 WK (STUDY DURATION: 30 WK), Strain/Sex: ACI/MALE, Target Tissue: Type of Lesion: SMALL INTESTINE: ADENOCARCINOMA, Dose [Carcinogen]: 0.02% IN DIET FOR FIRST 12 WK) was 9%, 10%, -11%, not significant, the “tumour outcome (control, treated, inhibition, significance)” value (Carcinogen: 2-AMINO-1-METHYL-6-PHENYL-1H-IMIDAZO[4,5-B]PYRID INE, 105650-23-5, Dose [Inhibitor]: 0, 0.1% IN DRINKING WATER FOR 52 WK (STUDY DURATION: 52 WK), Strain/Sex: F344/FEMALE, Target Tissue: Type of Lesion: MAMMARY GLAND: FIBROADENOMA, Dose [Carcinogen]: 0.02% IN THE DIET FOR 52 WK, Promoter: NONE USED) was 2/20 (10%), 0/20 (0%), 100%, not significant and the “tumour outcome (control, treated, inhibition, significance)” value (Carcinogen: 2-AMINO-1-METHYL-6-PHENYL-1H-IMIDAZO[4,5-B]PYRIDINE, 105650-23-5, Dose [Inhibitor]: 0, 0.1% IN DRINKING WATER FOR 52 WK (STUDY DURATION: 52 WK), Strain/Sex: F344/FEMALE, Target Tissue: Type of Lesion: MAMMARY GLAND: ADENOCARCINOMA, Dose [Carcinogen]: 0.02% IN THE DIET FOR 52 WK, Promoter: NONE USED) was 8/20 (40%), 2/20 (10%), 75%, p< 0.05. For the same compound, the “tumour outcome (control, treated, inhibition, significance)” value (Carcinogen: 2-AMINO-1-METHYL-6-PHENYLIMIDAZO[4,5-B]PYRIDINE [105650-23-5], Dose [Inhibitor]: 0.1% IN DRINKING WATER FOR 54 WK (STUDY DURATION: 54 WK), Strain/Sex: F344/DUCRJ/FEMALE, Target Tissue: Type of Lesion: COLON: ADENOMA OR ADENOCARCINOMA, Dose [Carcinogen]: 0.02% IN DIET FOR 54 WK (STUDY DURATION: 54 WK), Promoter: NONE) was 3/20 (15%), 15/20 (75%), -400%, p<0.01.
